Reference: patent US6461610B1, “Methods for modifying cell motility using factor VIIa or inactivated factor VIIa” (Novo Nordisk A/S, priority 1997, dated 2002)
Blank lines part the entries; values can stand above or below the molecule they belong to.

Tests used:
[1] = system: human foreskin fibroblasts AG1523; experiment: Chemotaxis assay, modified Boyden chamber, PDGF-BB induced migration of fibroblasts; assay type: cell-based; settings: for effect of inhibitor on FVIIa/TF hyperchemotactic response to PDGF-BB: 30 min pretreatment; for migration of fibroblast in response to PDGF without FVIIa: without the ligand FVIIa
Description: Chemotaxis assay. The migration response of fibroblasts was assayed by means of the leading front technique in a modified Boyden chamber, as previously described (Nister et al., Cell 52, 791-799 (1988); Siegbahn et al. J. Clin. Invest. 85, 916-920 (1990)). Micropore filters (pore size 8 μm) were coated with a solution of type-i collagen at room temperature over night. The filters were air dried for 30 minutes immediately before use.
Human foreskin fibroblasts AG1523 were grown to confluence in Eagle's MEM supplemented with 10% FBS. The cells were detached by trypsinization (2.5 mg/ml for 10 minutes at 37° C.) and suspended in Eagle's MEM with 10% FBS. The fibroblasts were incubated for 10 minutes with or without FVIIa or FFR-FVIIa before assay. One hundred microliters of the cell suspension (2×10^5 cells/ml) was added above the filter of the Boyden chamber. PDGF-BB was diluted in assay media (Eagle's MEM with 10% FBS) and added below the filter in the chamber. The cells were incubated for 6 hours at 37° C. in a humidified chamber containing 95% air/5% CO2. FVIIa or FFR-FVIIa were present during the entire experiment. The filters were then removed, fixed in ethanol, stained with Mayer's Hemalun, and mounted. Migration was measured as the distance of the two furthest migrating fibroblast nuclei of one high-power field (12.5×24) in focus. The migration distance in each filter was calculated as the mean of the readings of at least three different parts of the filter. Experiments were performed with two to four separate filters for each concentration of chemoattractant. For each set of experiments, the migration of fibroblasts toward the assay media served as control. In cases when anti-TF monoclonal antibodies or inhibitors to coagulation factors, TAP and Hirudin, were used, cells were preincubated for 10 minutes with these agents, then with or without FVIIa or FFR-FVIIa before the chemotaxis assay was performed. Antibodies, TAP or Hirudin were also present during the entire chemotaxis experiment. In experiments where the effects on the migration response of different inhibitors, LY294002, U73122 or U73343, were tested, cells were preincubated for 30 minutes with the inhibitors at indicated concentrations, and the inhibitors were also present throughout the experiments.
Fibroblasts expressing active TF (FIG. 11) were incubated with 100 nM of FVIIa and seeded in the upper part of the modified Boyden chamber; while media containing 10% FBS and PDGF-BB at different concentrations were added below the […] micropore filter. The migration of the cells under conditions where medium containing 10% FBS without PDGF-BB was added below the filter was used as a measure of random migration, and calculated as 100% migration.

human TF = experiment: SRE/STAT luciferase reporter (KZ136) in BHK cells stably transfected with human TF; assay type: cell-based; settings: 50 μM PD98059 for one hour prior to 100 nM FVIIa
Source text: BHK cells with and without stably transfected TF were stably transfected with KZ136 (reporter construct encoding 2×STAT1,3), 2×(STAT4,5,6) and a serum response element (SRE) upstream to a luciferase reporter gene) were stimulated with FVIIa. Only cells expressing TF responded to FVIIa in a dose dependent manner.
PD98059 is a specific inhibitor of MEK1, a kinase specifically involved in the p44/p42 MAPK cascade.
BHK cells stably transfected with the human TF and the reporter plasmid KZ136 were grown to 90% confluence, starved in DMEM with 0.1% FCS for 16 hours and then stimulated with FVIIa or FVIIai (FIG. 8). […] Also shown in FIG. 8 is an experiment where competition between FVIIa and FVIIai was studied. FVIIai was added to the cells 1 hour prior to stimulation with 20 nM FVIIa. The response induced by 20 nM FVIIa was inhibited 27%, 59%, 77%, and 91% by the addition of 20 nM, 50 nM, 100 nM, and 500 nM FVIIai, respectively.

[2] = target: T1, factor VIIa/tissue factor complex (Homo sapiens, UniProt P08709); experiment: TF-stimulated factor VIIa activity with chromogenic substrate S2288, zinc ion inhibition; assay type: biochemical; settings: 0.2 mM cystin dihydroxamate; 10 nM FVIIa, 50 nM TF1-218
T1 construct: TF1-218 from Dr W. Kisiel, University of New Mexico
T1 sequence (P08709 61-212 limits assumed): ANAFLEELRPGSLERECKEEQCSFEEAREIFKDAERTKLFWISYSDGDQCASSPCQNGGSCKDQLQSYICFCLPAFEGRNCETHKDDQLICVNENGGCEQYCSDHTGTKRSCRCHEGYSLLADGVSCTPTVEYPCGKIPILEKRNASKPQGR
T1 sequence (P08709 213-466 limits assumed): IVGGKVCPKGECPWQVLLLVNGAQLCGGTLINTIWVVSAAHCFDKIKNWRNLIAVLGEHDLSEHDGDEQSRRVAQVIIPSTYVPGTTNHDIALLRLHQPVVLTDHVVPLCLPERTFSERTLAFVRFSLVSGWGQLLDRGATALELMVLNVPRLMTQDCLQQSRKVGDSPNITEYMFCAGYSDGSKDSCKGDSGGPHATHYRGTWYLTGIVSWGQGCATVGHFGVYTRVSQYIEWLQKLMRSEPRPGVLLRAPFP
Description: Factor VIIa activity was measured with the chromogenic substrate S2288 (H-D-Ile-Pro-Arg-p-nitroanilide). The activity of 10 nM FVIIa in the presence of 50 nM TF1-218 (Dr W. Kisiel, University of New Mexico, Albuquerque, N. Mex.) was measured in buffer containing 50 mM TrisCl pH 7.4 0.1 M NaCl, 1 mM CaCl2, 0.05% Tween 20 and 0.4 mM S2288. The activity was measured at room temperature as the change in absorbance at 405 nm.

MAPK p44/42 = experiment: Western blot of phosphorylated MAPK p44/42 in BHK cells stably transfected with human TF; assay type: cell-based; settings: 100 nM for 5 min
Description: In this set of experiments with TF transfected BHK, ECV-304 and MDCK cell lines two antibodies raised against the MAPK were used, one targeting activated as well as non-activated forms of MAPK, and another, targeting only the activated (phosphorylated) form of MAPK.
BHK cells stable transfected with human TF were grown to 90% confluence and starved in DMEM with 0. 1% FCS for 24 hours prior to stimulation with FVIIa. Samples for Western blotting were sampled at 0, 3, 5, 7, 10, 20 and 40 minutes after addition of 100 nM FVIIa. […] Over the next 10 minutes the response declined to reach the background level at about 20 minutes after addition of FVIIa.
In this set of experiments with TF transfected BHK cell lines we used a phospho-specific antibody against phosphorylated (Thr202/Tyr204) p44/42 MAPK and an antibody targeting total p44/42 MAPK (New Englands Biolabs, Beverly, Mass.).
BHK cells stable transfected with human TF were grown to 90% confluence and starved in DMEM with 0.1% FCS for 24 hours prior to stimulation. In FIG. 9A the cells were stimulated with 100 nM FVIIa for 0, 3, 5, 7, 10 and 40 minutes before the cells were lysed and samples for Western blotting were taken.
The results shown in FIG. 9B were obtained when BHK(+TF) cells were exposed to 100 nM FVII, FVIIa, FVIIai, [Ala344]FVII or FXa for 5 min. […]

[3] = 100 nM FVIIa, 0.1 ng/ml PDGF-BB

Molecule: COc1ccc2c(c1)CC[C@@H]1[C@@H]2CC[C@]2(C)[C@@H](NCCCCCCN3C(=O)C=CC3=O)CC[C@@H]12 [Example U73122]
- inhibitor concentration giving total inhibition of hyperchemotactic response [1, 3]: 1 µM
- effect of inhibitor on FVIIa/TF hyperchemotactic response to PDGF-BB [1, 3]: inhibited

Molecule: COc1ccc2c(c1)CC[C@@H]1[C@@H]2CC[C@]2(C)[C@@H](NCCCCCCN3C(=O)CCC3=O)CC[C@@H]12 [Example U73343]
- effect of inhibitor on FVIIa/TF hyperchemotactic response to PDGF-BB [1, 3]: No effect

Molecule: COc1cccc(-c2cc(=O)c3ccccc3o2)c1N [PD98059]
- reporter response to 100 nM FVIIa after inhibitor pre-treatment (human TF): did not respond

- effect of zinc ions to abolish FVIIa-TF complex formation / activity in presence of chelator [2]: profoundly potentiated
Molecule: N[C@@H](CSSC[C@H](N)C(=O)NO)C(=O)NO [cystindihydroxamate, L-Cystine dihydroxamate]

Molecule: Hirudin
- effect on FVIIa/TF induced hyperchemotaxis ([1]; 5 U/ml Hirudin, 100 nM FVIIa): had no any effect
- migration of fibroblast in response to PDGF without FVIIa [1]: did not influence

Molecule: TAP: Tick anticoagulant peptide, specifically blocks the active site of FXa (YNRLCIKPRDWIDECDSNEGGERAYFRNGKGGCDSFWICPEDHTGADYYSSYRDCFNACI; UniProt P17726 1-60, looked up)
- effect on enhanced migration response transduced by FVIIa/TF ([1]; 0.2-10 μM TAP, 100 nM FVIIa): not blocked
- migration of fibroblast in response to PDGF without FVIIa [1]: did not influence

B1: [Ala344]FVII: FVII with Ala at catalytic residue 344 (protein, UniProt P08709 1-466, looked up, variant S344A)
chain: MVSQALRLLCLLLGLQGCLAAGGVAKASGGETRDMPWKPGPHRVFVTQEEAHGVLHRRRRANAFLEELRPGSLERECKEEQCSFEEAREIFKDAERTKLFWISYSDGDQCASSPCQNGGSCKDQLQSYICFCLPAFEGRNCETHKDDQLICVNENGGCEQYCSDHTGTKRSCRCHEGYSLLADGVSCTPTVEYPCGKIPILEKRNASKPQGRIVGGKVCPKGECPWQVLLLVNGAQLCGGTLINTIWVVSAAHCFDKIKNWRNLIAVLGEHDLSEHDGDEQSRRVAQVIIPSTYVPGTTNHDIALLRLHQPVVLTDHVVPLCLPERTFSERTLAFVRFSLVSGWGQLLDRGATALELMVLNVPRLMTQDCLQQSRKVGDSPNITEYMFCAGYSDGSKDSCKGDAGGPHATHYRGTWYLTGIVSWGQGCATVGHFGVYTRVSQYIEWLQKLMRSEPRPGVLLRAPFP
- activation (phosphorylation) of p44/42 MAPK (MAPK p44/42): no significant activation
